Measurements as given in US10307404B1, “Ocular formulations for drug-delivery to the posterior segment of the eye” (priority 2013, dated 2019).
Like-named read-outs stand apart in the source and are kept apart here.

What was measured:
[1] = PK of topical ocular sodium phosphate-based Gel Drop, concentrations 1 hour after last dose; assay type: in vivo, Dutch-belted rabbits; conditions: Dutch-belted, rabbit
From the text: The Gel Drop of Compound-I was applied to eyes of Dutch-belted rabbits.

[2] = Ocular toxicology study, twice daily 0.3% ophthalmic gel drop: ocular tissue concentrations, electroretinograms; assay type: in vivo, Dutch-Belted rabbits; conditions: 0.3% gel drop formulations with and without benzylalkonium chloride
From the text: (§1) Retinal function was normal in all test article and vehicle treated groups during full-field electroretinograms performed in rabbits.

[3] = set-up: species or system Dutch-Belted rabbits and beagle dogs; conditions: Dutch-belted, beagle, rabbit, dog, in vivo
From the text: Animals that received topical ocular administration of the tromethamine-based suspension were able to tolerate up to higher level of the active agent concentration in the formulation, as compared to equimolar formulations of the sodium phosphate-based Gel Drop.
Overall, the combination of decreased corneal exposure and corresponding improved ocular tolerability, while simultaneously maintaining or promoting drug delivery to the posterior segment target tissues, along with improved physicochemical stability, will provide greater benefit to patients compared to the ophthalmic Gel Drop formulation.
as §1

[4] = 30-day topical ocular tolerability of cyclodextrin-based solutions; assay type: in vivo

SMILES: Cl.NC(=O)c1c(OCc2c(F)cc(Br)cc2F)nsc1NC(=O)NCCCCN1CCCC1 [Compound-I, 3-[(4-bromo-2,6-difluorophenyl)methoxy]-5-[[[[4-(1-pyrrolidinyl)butyl]amino]carbonyl]amino]-4-isothiazolecarboxamide hydrochloride]
- concentration at 1 h ([1]; choroid, 4 mg/ml, pH 6, 4 mg/ml pH 6.0 Phos 0.2% BAK 0.005% Gly 2%, 3x/day 5 days, read-out: MEAN [choroid]): 596 nM
- concentration at 1 h ([1]; choroid, 5 mg/ml, pH 6, 5 mg/ml pH 6 Phos 0.2% BAK 0.005% Gly 2% Osmo 273, 3x/day 5 days, read-out: MEAN [choroid]): 1160 nM
- concentration at 1 h ([1]; choroid, 5 mg/ml, pH 6, 5 mg/ml pH 6 Phos 0.2% BAK 0.005% Gly 2% PS80 1% Polox 0.2% Osmo 288, 3x/day 5 days, read-out: MEAN [choroid]): 612 nM
- concentration at 1 h ([1]; choroid, 6 mg/ml, pH 5.9, 6 mg/ml pH 5.9 Phos 0.05% BAK 0.005% Gly 2% PS80 1% Tylox 0.1% Polox 0.2% Osmo 270, 3x/day 4 days, read-out: MEAN [choroid]): 22.4 nM
- concentration at 1 h ([1]; choroid, 6 mg/ml, pH 5.9, 6 mg/ml pH 5.9 Phos […] Osmo 80, 3x/day 4 days, read-out: MEAN [choroid]): 823 nM
- concentration at 1 h ([1]; choroid, 6 mg/ml, pH 6.1, 6 mg/ml pH 6.1 Phos 0.05% BAK 0.005% Gly 2% PS80 1% Tylox 0.1% Osmo 248, 3x/day 5 days, read-out: MEAN [choroid]): 779 nM
- concentration at 1 h ([1]; plasma, 1 mg/ml, pH 6, 1 mg/ml pH 6.0 Phos 0.05% BAK 0.005% Gly 2% PS80 0.01% Tylox 0.2%, 3x/day 5 days, read-out: [plasma]): 3.49 nM
- concentration at 1 h ([1]; plasma, 1 mg/ml, pH 6, 1 mg/ml pH 6 Phos 0.05% BAK 0.005% Gly 2%, 3x/day 5 days, read-out: [plasma]): 4.45 nM
- concentration at 1 h ([1]; plasma, 1 mg/ml, pH 6, 1 mg/ml pH 6.0 Phos 0.2% BAK 0.005% Gly 2% PS80 1% Tylox 0.2%, 3x/day 5 days, read-out: [plasma]): 2.89 nM
- concentration at 1 h ([1]; plasma, 1 mg/ml, pH 6, 1 mg/ml pH 6.0 Phos 0.2% BAK 0.005% Gly 2%, 3x/day 5 days, read-out: [plasma]): 3.97 nM
- concentration at 1 h ([1]; plasma, 2 mg/ml, pH 6, 2 mg/ml pH 6 BAK 0.005% Gly 2% Osmo 232, 3x/day 5 days, read-out: [plasma]): 5.41 nM
- concentration at 1 h ([1]; plasma, 2 mg/ml, pH 6, 2 mg/ml pH 6.0 Phos 0.02% BAK 0.005% Gly 2% PS80 1% Tylox 0.2%, 3x/day 5 days, read-out: [plasma]): 4.46 nM
- concentration at 1 h ([1]; plasma, 2 mg/ml, pH 6, 2 mg/ml pH 6 Phos 0.05% BAK 0.005% Gly 2% Osmo 244, 3x/day 5 days, read-out: [plasma]): 5.92 nM
- concentration at 1 h ([1]; plasma, 2 mg/ml, pH 6, 2 mg/ml pH 6 Phos 0.05% BAK 0.005% Gly 2% PS80 1% Osmo 261, 3x/day 5 days, read-out: [plasma]): 4.15 nM
- concentration at 1 h ([1]; plasma, 2 mg/ml, pH 6, 2 mg/ml pH 6.0 Phos 0.05% BAK 0.005% Gly 2% PS80 1% Tylox 0.2%, 3x/day 5 days, read-out: [plasma]): 4.36 nM
- concentration at 1 h ([1]; plasma, 2 mg/ml, pH 6, 2 mg/ml pH 6.0 Phos 0.05% BAK 0.005% Gly 2%, 3x/day 5 days, read-out: [plasma]): 5.79 nM
- concentration at 1 h ([1]; plasma, 2 mg/ml, pH 6, 2 mg/ml pH 6.0 Phos 0.1% BAK 0.005% Gly 2%, 3x/day 5 days, read-out: [plasma]): 5.71 nM
- concentration at 1 h ([1]; plasma, 2 mg/ml, pH 6, 2 mg/ml pH 6 Phos 0.2% BAK 0.005% Gly 2% Osmo 257, 3x/day 5 days, read-out: [plasma]): 5.26 nM
- concentration at 1 h ([1]; plasma, 2 mg/ml, pH 6, 2 mg/ml pH 6 Phos 0.2% BAK 0.005% Gly 2% PS80 1% Osmo 281, 3x/day 5 days, read-out: [plasma]): 4.94 nM
- concentration at 1 h ([1]; plasma, 2 mg/ml, pH 6, 2 mg/ml pH 6.0 Phos 0.2% BAK 0.005% Gly 2%, 3x/day 5 days, read-out: [plasma]): 4.47 nM
- concentration at 1 h ([1]; plasma, 2 mg/ml, pH 6.1, 2 mg/ml pH 6.1 Phos […] Osmo 34, 3x/day 4 days, read-out: [plasma]): 4.81 nM
- concentration at 1 h ([1]; plasma, 4 mg/ml, pH 6, 4 mg/ml pH 6.0 Phos 0.2% BAK 0.005% Gly 2%, 3x/day 5 days, read-out: [plasma]): 5.84 nM
- concentration at 1 h ([1]; plasma, 4 mg/ml, pH 6, 4 mg/ml pH 6.0 Phos 2% BAK 0.005% Gly 2% PS80 1% Tylox 0.2%, 3x/day 5 days, read-out: [plasma]): 8.06 nM
- concentration at 1 h ([1]; plasma, 6 mg/ml, pH 5.9, 6 mg/ml pH 5.9 Phos 0.05% BAK 0.005% Gly 2% PS80 1% Tylox 0.1% Polox 0.2% Osmo 270, 3x/day 4 days, read-out: [plasma]): 15.6 nM
- concentration at 1 h ([1]; plasma, 6 mg/ml, pH 5.9, 6 mg/ml pH 5.9 Phos 0.1% BAK 0.005% Gly 2% Polox 0.2% Osmo 257, 3x/day 4 days, read-out: [plasma]): 8.43 nM
- concentration at 1 h ([1]; retina, 1 mg/ml, pH 6, 1 mg/ml pH 6.0 Phos 0.05% BAK 0.005% Gly 2% PS80 0.01% Tylox 0.2%, 3x/day 5 days, read-out: Mean [retina]): 46.8 nM
- concentration at 1 h ([1]; retina, 1 mg/ml, pH 6, 1 mg/ml pH 6.0 Phos 0.2% BAK 0.005% Gly 2% PS80 1% Tylox 0.2%, 3x/day 5 days, read-out: Mean [retina]): 32.7 nM
- concentration at 1 h ([1]; retina, 1 mg/ml, pH 6, 1 mg/ml pH 6.0 Phos 0.2% BAK 0.005% Gly 2%, 3x/day 5 days, read-out: Mean [retina]): 90.8 nM
- concentration at 1 h ([1]; retina, 2 mg/ml, pH 6, 2 mg/ml pH 6.0 Phos 0.02% BAK 0.005% Gly 2% PS80 1% Tylox 0.2%, 3x/day 5 days, read-out: Mean [retina]): 92.9 nM
- concentration at 1 h ([1]; retina, 2 mg/ml, pH 6, 2 mg/ml pH 6 Phos 0.05% BAK 0.005% Gly 2% Osmo 244, 3x/day 5 days, read-out: Mean [retina]): 121 nM
- concentration at 1 h ([1]; retina, 2 mg/ml, pH 6, 2 mg/ml pH 6 Phos 0.05% BAK 0.005% Gly 2% PS80 1% Osmo 261, 3x/day 5 days, read-out: Mean [retina]): 126 nM
- concentration at 1 h ([1]; retina, 2 mg/ml, pH 6, 2 mg/ml pH 6.0 Phos 0.05% BAK 0.005% Gly 2% PS80 1% Tylox 0.2%, 3x/day 5 days, read-out: Mean [retina]): 85.7 nM
- concentration at 1 h ([1]; retina, 2 mg/ml, pH 6, 2 mg/ml pH 6.0 Phos 0.05% BAK 0.005% Gly 2%, 3x/day 5 days, read-out: Mean [retina]): 113 nM
- concentration at 1 h ([1]; retina, 2 mg/ml, pH 6, 2 mg/ml pH 6.0 Phos 0.1% BAK 0.005% Gly 2%, 3x/day 5 days, read-out: Mean [retina]): 42.9 nM
- concentration at 1 h ([1]; retina, 2 mg/ml, pH 6, 2 mg/ml pH 6.0 Phos 0.2% BAK 0.005% Gly 2%, 3x/day 5 days, read-out: Mean [retina]): 34.8 nM
- concentration at 1 h ([1]; retina, 4 mg/ml, pH 6, 4 mg/ml pH 6.0 Phos 0.2% BAK 0.005% Gly 2%, 3x/day 5 days, read-out: Mean [retina]): 68.3 nM
- concentration at 1 h ([1]; retina, 4 mg/ml, pH 6, 4 mg/ml pH 6.0 Phos 2% BAK 0.005% Gly 2% PS80 1% Tylox 0.2%, 3x/day 5 days, read-out: Mean [retina]): 97.6 nM
- Mean ocular tissue concentration, peripheral retina [2]: 0.150 to 0.3091 µM
- cornea concentration above which ocular side effects were more consistently observed [3]: exceeded 100 μM
- findings attributed to test-article or vehicle ([4]; 0.6% cyclodextrin-based solution, 30 days of topical ocular dosing): no untoward findings
- ocular toxicity, clinical ophthalmic or microscopic examinations ([4]; rabbit, in vivo): No overt ocular toxicity
- tolerability ([4]; rabbit, in vivo): well tolerated
